From paper PMC3402541, “Guanidylation and Tail Effects in Cationic Antimicrobial Lipopeptoids” (PLoS ONE, 2012)
Values after ≈ are worked out from the molar mass of the structure shown. Where a SMILES comes first, the peptide text is derived from it. [ ]: non-standard residue; d: D form. The star is where a group is joined. Myristoyl = CCCCCCCCCCCCCC(=O)*; Nlys = NCCCCNCC(=O)O

How the values were obtained:
[1] = system: S. maltophilia CAN-ICU 62584; format: cell-based, Stenotrophomonas maltophilia; conditions: CAN-ICU 62584, 24 h
Method: (§1) Antimicrobial activity of the purified lipopeptoids was determined without replication against a panel of clinically relevant and standard reference bacterial strains according to CLSI macrobroth standards. Stock solutions at 512 µg/mL were prepared in water, with DMSO as needed, and testing was performed in glass test tubes using Muller-Hinton broth and bacteria adjusted to 5 × 10^5 CFU/mL. Bacteria were incubated with the lipopeptoid of interest for 24 hr at 37°C prior to reading.
(§2) The bacteria Staphylococcus aureus ATCC 29213, methicillin-resistant S. aureus ATCC 33592, Staphylococcus epidermidis ATCC 14990, Enterococcus faecalis ATCC 29212, E. faecium ATCC 27270, Streptococcus pneumoniae ATCC 49619, Escherichia coli ATCC 25922, Pseudomonas aeruginosa ATCC 27853, and Klebsiella pneumoniae ATCC 13883 were acquired from the American Type Culture Collection (ATCC) and used as quality controls. The clinical strains methicillin-resistant S. epidermidis (MRSE) CAN-ICU 61589, E. coli CAN-ICU 61714, E. coli CAN-ICU 63074, P. aeruginosa CAN-ICU 62308, Stenotrophomonas maltophilia CAN-ICU 62584, Acinetobacter baumannii CAN-ICU 63169 were obtained from hospitals across Canada as part of the CAN-ICU studies, while methicillin-susceptible S. epidermidis (MSSE) 81388 was obtained from the 2008 CANWARD study.
(§3) After subculturing the relevant bacteria twice from frozen stock, in vitro activities of the antimicrobials were determined by macrobroth dilution methodology in accordance with the Clinical and Laboratory Standards Institute (CLSI) guidelines (3). The MICs were determined using glass test tubes (2 mL/tube) containing doubling antimicrobial dilutions of cation adjusted Mueller-Hinton broth inoculated to achieve a final concentration of approximately 5 x 10^5 CFU/mL, incubated in ambient air for 24 hr prior to reading. Colony counts were performed periodically to confirm inocula. The ATCC organisms […] ATCC 49619, Staphylococcus aureus ATCC 29213, Enterococcus faecalis ATCC 29212, Escherichia coli ATCC 25922, and Pseudomonas aeruginosa ATCC 27853 were used as quality control and to allow easy comparison to previously tested antimicrobials. Each test in this series was performed without replication. In our experience with cationic amphiphiles the results are accurate to within a single doubling.

S.aureus ATCC 29213 = format: cell-based, Staphylococcus aureus; conditions: ATCC 29213, 24 h
Method: as §1, §2, §3

ovine erythrocytes = experiment: Haemolytic assay; format: cell-based, sheep; conditions: ovine erythrocytes in Tris buffered saline, 30 minutes, absorbance of supernatant at 540 nm
Method: Mammalian cell toxicity was determined by measuring lysis of ovine erythrocytes, a standard model for human cell toxicity. Cells were prewashed with Tris buffered saline and then incubated with a variety of lipopeptoid concentrations for 30 minutes. Following centrifugation, lysis was evaluated by testing the absorbance of the solution at 540 nm, with 0.5% NH4OH used as a positive control.
Toxicity to mammalian cells was determined using a sheep red blood cell (erythrocyte) haemolytic assay (4). Erythrocytes were washed and resuspended in Tris buffered saline prior to use, at a concentration of 1.46 - 4.5 x 10^9 cells/mL (on average 3.08 x 10^9 cells/mL). The cell suspension was diluted with varying concentrations of antimicrobials, from 50 μg/mL to 1 mg/mL and incubated for thirty minutes (final erythrocyte concentration 4.08 x 10^8 cells/mL). The samples were centrifuged following treatment and the absorbance of the supernatant was measured at 540 nm. A solution of 0.5% […] was used as a positive control, with normal buffered solution as the negative control. The toxicity was assessed as a function of percent haemolysis.

K.pneumoniae ATCC 13883 = format: cell-based, Klebsiella pneumoniae; conditions: ATCC 13883, 24 h
Method: as §1, §2, §3

[2] = system: A. baumannii CAN-ICU 63169; format: cell-based, Acinetobacter baumannii; conditions: CAN-ICU 63169, 24 h
Method: as §1, §2, §3

P.aeruginosa ATCC 27853 = format: cell-based, Pseudomonas aeruginosa; conditions: ATCC 27853, 24 h
Method: as §1, §2, §3

[3] = system: P.aeruginosa CAN-ICU 62308; format: cell-based, Pseudomonas aeruginosa; conditions: CAN-ICU 62308, 24 h
Method: as §1, §2, §3

MRSE CAN-ICU 61589 = format: cell-based, methicillin-resistant S. epidermidis; conditions: CAN-ICU 61589, 24 h
Method: as §1, §2, §3

E. faecium ATCC 27270 = format: cell-based; conditions: ATCC 27270, 24 h
Method: as §1, §2, §3

E.coli ATCC 25922 = format: cell-based, Escherichia coli; conditions: ATCC 25922, 24 h
Method: as §1, §2, §3

E.coli CAN-ICU 63074 = format: cell-based, Escherichia coli; conditions: CAN-ICU 63074, 24 h
Method: as §1, §2, §3

E.coli CAN-ICU 61714 = format: cell-based, Escherichia coli; conditions: CAN-ICU 61714, 24 h
Method: as §1, §2, §3

MSSE 81388 CANWARD 2008 = format: cell-based, methicillin-susceptible S. epidermidis; conditions: 24 h
Method: as §1, §2, §3

S.pneumoniae ATCC 49619 = format: cell-based, Streptococcus pneumoniae; conditions: ATCC 49619, 24 h
Method: as §1, §2, §3

MRSA ATCC 33592 = format: cell-based, methicillin-resistant S. aureus; conditions: ATCC 33592, 24 h
Method: as §1, §2, §3

E. faecalis ATCC 29212 = format: cell-based, Enterococcus faecalis; conditions: ATCC 29212, 24 h
Method: as §1, §2, §3

MIC S. maltophilia [1] [µg/mL]	MIC S. maltophilia in the presence of 4% bovine serum albumin [1] [µg/mL]	MIC S.aureus (S.aureus ATCC 29213) [µg/mL]	MIC S.aureus in the presence of 4% bovine serum albumin (S.aureus ATCC 29213) [µg/mL]	MIC K.pneumoniae (K.pneumoniae ATCC 13883) [µg/mL]	MIC K.pneumoniae in the presence of 4% bovine serum albumin (K.pneumoniae ATCC 13883) [µg/mL]	MIC A. baumannii [2] [µg/mL]	MIC A. baumannii in the presence of 4% bovine serum albumin [2] [µg/mL]	MIC P.aeruginosa (P.aeruginosa ATCC 27853) [µg/mL]	MIC P.aeruginosa in the presence of 4% bovine serum albumin (P.aeruginosa ATCC 27853) [µg/mL]	MIC P.aeruginosa [3] [µg/mL]	MIC P.aeruginosa in the presence of 4% bovine serum albumin [3] [µg/mL]	MIC MRSE (MRSE CAN-ICU 61589) [µg/mL]	MIC MRSE in the presence of 4% bovine serum albumin (MRSE CAN-ICU 61589) [µg/mL]	MIC E. faecium (E. faecium ATCC 27270) [µg/mL]	MIC E. faecium in the presence of 4% bovine serum albumin (E. faecium ATCC 27270) [µg/mL]	MIC E.coli (E.coli ATCC 25922) [µg/mL]	MIC E.coli in the presence of 4% bovine serum albumin (E.coli ATCC 25922) [µg/mL]	MIC E.coli (E.coli CAN-ICU 63074) [µg/mL]	Structure (SMILES)	Percent haemolysis at 100µg/mL of compound (ovine erythrocytes) [%]	also measured
512 (≈ 947 µM)	>512	32 (≈ 59.2 µM)	512	256 (≈ 473 µM)	>512	256 (≈ 473 µM)	>512	256 (≈ 473 µM)	>512	512 (≈ 947 µM)	>512	32 (≈ 59.2 µM)	512	64 (≈ 118 µM)	512	128 (≈ 237 µM)	>512	128 (≈ 237 µM)	CCCCCCCCCCCCCC(=O)N(CCCCN)CC(=O)NCC(=O)N(CCCCN)CC(N)=O [C14-NlysGNlys] (Myristoyl-[Nlys]-Gly-[Nlys]-NH2)	2.90	MIC E.coli in the presence of 4% bovine serum albumin (E.coli CAN-ICU 63074): >512 µg/mL; MIC E.coli (E.coli CAN-ICU 61714): 128 µg/mL (≈ 237 µM); MIC E.coli in the presence of 4% bovine serum albumin (E.coli CAN-ICU 61714): >512 µg/mL; MIC MSSE (MSSE 81388 CANWARD 2008): 16 µg/mL (≈ 29.6 µM); MIC MSSE in the presence of 4% bovine serum albumin (MSSE 81388 CANWARD 2008): 512 µg/mL; MIC S.pneumoniae (S.pneumoniae ATCC 49619): 256 µg/mL (≈ 473 µM); MIC S.pneumoniae in the presence of 4% bovine serum albumin (S.pneumoniae ATCC 49619): >512 µg/mL; MIC MRSA (MRSA ATCC 33592): 32 µg/mL (≈ 59.2 µM); MIC MRSA in the presence of 4% bovine serum albumin (MRSA ATCC 33592): 512 µg/mL; MIC E. faecalis (E. faecalis ATCC 29212): 64 µg/mL (≈ 118 µM); MIC E. faecalis in the presence of 4% bovine serum albumin (E. faecalis ATCC 29212): >512 µg/mL
>512	>512	32 (≈ 52.3 µM)	512	512 (≈ 837 µM)	>512	512 (≈ 837 µM)	>512	512 (≈ 837 µM)	>512	512 (≈ 837 µM)	512	16 (≈ 26.1 µM)	512	64 (≈ 105 µM)	512	128 (≈ 209 µM)	>512	128 (≈ 209 µM)	CCCCCCCCCCCCCC(=O)N(CCCCN)CC(=O)N(CCCCN)CC(=O)N(CCCCN)CC(N)=O [C14-NlysNlysNlys]	2.19	MIC E.coli in the presence of 4% bovine serum albumin (E.coli CAN-ICU 63074): >512 µg/mL; MIC E.coli (E.coli CAN-ICU 61714): 128 µg/mL (≈ 209 µM); MIC E.coli in the presence of 4% bovine serum albumin (E.coli CAN-ICU 61714): >512 µg/mL; MIC MSSE (MSSE 81388 CANWARD 2008): 32 µg/mL (≈ 52.3 µM); MIC MSSE in the presence of 4% bovine serum albumin (MSSE 81388 CANWARD 2008): 512 µg/mL; MIC S.pneumoniae (S.pneumoniae ATCC 49619): 128 µg/mL (≈ 209 µM); MIC S.pneumoniae in the presence of 4% bovine serum albumin (S.pneumoniae ATCC 49619): >512 µg/mL; MIC MRSA (MRSA ATCC 33592): 64 µg/mL (≈ 105 µM); MIC MRSA in the presence of 4% bovine serum albumin (MRSA ATCC 33592): 512 µg/mL; MIC E. faecalis (E. faecalis ATCC 29212): 64 µg/mL (≈ 105 µM); MIC E. faecalis in the presence of 4% bovine serum albumin (E. faecalis ATCC 29212): 512 µg/mL
128 (≈ 167 µM)	>512	8 (≈ 10.4 µM)	512	256 (≈ 334 µM)	>512	128 (≈ 167 µM)	>512	64 (≈ 83.5 µM)	>512	64 (≈ 83.5 µM)	>512	8 (≈ 10.4 µM)	512	16 (≈ 20.9 µM)	512	16 (≈ 20.9 µM)	512	32 (≈ 41.8 µM)	CCCCCCCCCCCCCCCC(=O)N(CCCCNC(=N)N)CC(=O)N(CCCCNC(=N)N)CC(=O)N(CCCCNC(=N)N)CC(N)=O [C16-NhargNhargNharg]	30.80	MIC E.coli in the presence of 4% bovine serum albumin (E.coli CAN-ICU 63074): >512 µg/mL; MIC E.coli (E.coli CAN-ICU 61714): 32 µg/mL (≈ 41.8 µM); MIC E.coli in the presence of 4% bovine serum albumin (E.coli CAN-ICU 61714): 512 µg/mL; MIC MSSE (MSSE 81388 CANWARD 2008): 8 µg/mL (≈ 10.4 µM); MIC MSSE in the presence of 4% bovine serum albumin (MSSE 81388 CANWARD 2008): 256 µg/mL; MIC S.pneumoniae (S.pneumoniae ATCC 49619): 64 µg/mL (≈ 83.5 µM); MIC MRSA (MRSA ATCC 33592): 16 µg/mL (≈ 20.9 µM); MIC MRSA in the presence of 4% bovine serum albumin (MRSA ATCC 33592): 512 µg/mL; MIC E. faecalis (E. faecalis ATCC 29212): 16 µg/mL (≈ 20.9 µM); MIC E. faecalis in the presence of 4% bovine serum albumin (E. faecalis ATCC 29212): 512 µg/mL
256 (≈ 400 µM)	>512	16 (≈ 25 µM)	512	128 (≈ 200 µM)	>512	256 (≈ 400 µM)	>512	128 (≈ 200 µM)	>512	128 (≈ 200 µM)	>512	8 (≈ 12.5 µM)	512	32 (≈ 50 µM)	>512	32 (≈ 50 µM)	>512	64 (≈ 100 µM)	CCCCCCCCCCCCCCCC(=O)N(CCCCN)CC(=O)N(CCCCN)CC(=O)N(CCCCN)CC(N)=O [C16-NlysNlysNlys]	67.69	MIC E.coli in the presence of 4% bovine serum albumin (E.coli CAN-ICU 63074): >512 µg/mL; MIC E.coli (E.coli CAN-ICU 61714): 64 µg/mL (≈ 100 µM); MIC E.coli in the presence of 4% bovine serum albumin (E.coli CAN-ICU 61714): >512 µg/mL; MIC MSSE (MSSE 81388 CANWARD 2008): 8 µg/mL (≈ 12.5 µM); MIC MSSE in the presence of 4% bovine serum albumin (MSSE 81388 CANWARD 2008): 512 µg/mL; MIC S.pneumoniae (S.pneumoniae ATCC 49619): 128 µg/mL (≈ 200 µM); MIC S.pneumoniae in the presence of 4% bovine serum albumin (S.pneumoniae ATCC 49619): 512 µg/mL; MIC MRSA (MRSA ATCC 33592): 32 µg/mL (≈ 50 µM); MIC MRSA in the presence of 4% bovine serum albumin (MRSA ATCC 33592): >512 µg/mL; MIC E. faecalis (E. faecalis ATCC 29212): 32 µg/mL (≈ 50 µM); MIC E. faecalis in the presence of 4% bovine serum albumin (E. faecalis ATCC 29212): >512 µg/mL
